The values that follow come from ChEMBL document CHEMBL1201862, “PubChem BioAssay data set” (2004).

Some test systems named below: RPMI-8226; HT-29; SW-620; Malme-3M; SN12C; CCRF-CEM; NCI-H522; HCC 2998; CAKI-1; SR; COLO 205; UACC-62; T47D; HOP-62; MDA-MB-231; ACHN; OVCAR-3; IGROV-1.
Common to all, as to experiment: growth of human tumour cells (NCI), 48 h

Molecules are shown by their SMILES.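 48-hour exposure; five concentrations; linearly interpolated endpoints. GI50 is the concentration that inhibits growth by half.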 Calls of active or inactive are those of the source. Rule as the data show it: active = GI50 up to about 1.1 µM and inactive = higher. Numbered stars: 1 amine (or outer) side, 2 acyl side, 3 side chain; on linkers, the order of the positions; unused ones are H or OH. Bridge positions count the residues as written; N and C are the ends. Square brackets hold non-standard residues; d marks the D form. Peptide text beside a SMILES is read from it. X58 = COc1c(N[*:1])cccc1C(=O)O[C@H](C(=O)[C@H](C)C(=O)[*:2])C(C)C; X57 = CC(C)C[C@H](C(=O)[*:2])C(C)C(=O)C1CCCN1[*:1]; NMeY = CN[C@@H](Cc1ccc(O)cc1)C(=O)O; Lac = C[C@H](O)C(=O)O Bounds are passed on as bounds.

With `Cc1ccc(/C=C2\N=C(N3CCCCC3)NC2=O)cc1`, the GI50 was 60.8 µM (inactive) in the assay with RPMI-8226; 95.9 µM (inactive) in the assay with HT-29; > 100 µM (inactive) in the assay with SW-620; > 100 µM (inactive) in the assay with Malme-3M; > 100 µM (inactive) in the assay with SN12C; > 100 µM (inactive) in the assay on CCRF-CEM. The GI50 with NCI-H522 is 74.5 µM (inactive); in the assay with HCC 2998, 58.1 µM (inactive); in the assay with CAKI-1, > 100 µM (inactive); with SR, > 100 µM (inactive); with COLO 205 it was > 100 µM (inactive); with UACC-62 it was > 100 µM (inactive). For the same compound, the GI50 in the assay on T47D was 58.1 µM (inactive); in the assay with HOP-62, > 100 µM (inactive); with MDA-MB-231, > 100 µM (inactive); in the assay on ACHN, > 100 µM (inactive); in the assay on OVCAR-3 it was > 100 µM (inactive).
Regarding `O=S(=O)(/C=C/C=C/S(=O)(=O)c1ccccc1)c1ccccc1`, the GI50 is 0.419 µM (active) with RPMI-8226; 1.18 µM (inactive) in the assay with HT-29; 0.172 µM (active) in the assay with SW-620; 1.17 µM (inactive) in the assay on Malme-3M; 2 µM (inactive) in the assay on SN12C; 0.151 µM (active) in the assay on CCRF-CEM. In addition, the GI50 is 0.174 µM (active) in the assay with NCI-H522; 11.5 µM (inactive) with HCC 2998; 1.24 µM (inactive) in the assay with CAKI-1; 0.285 µM (active) in the assay on SR; 1.44 µM (inactive) in the assay on COLO 205; 0.721 µM (active) in the assay on UACC-62. Further, the GI50 in the assay on T47D was 1.04 µM (active); with IGROV-1, 4.56 µM (inactive); in the assay with HOP-62, 6.76 µM (inactive); in the assay with MDA-MB-231, 1.56 µM (inactive); in the assay on ACHN it was 0.769 µM (active); with OVCAR-3 it was 0.721 µM (active).
Turning to `O=c1[nH]nc(-c2ccccc2)n1/N=C\CC/C=N\n1c(-c2ccccc2)n[nH]c1=O`, the GI50 with RPMI-8226 was 25.3 µM (inactive); in the assay on HT-29 it was 19.4 µM (inactive); in the assay on SW-620, 32.2 µM (inactive); with Malme-3M it was 25.2 µM (inactive); in the assay on SN12C, 20.3 µM (inactive); with CCRF-CEM, > 10 µM (inactive). The GI50 with NCI-H522 is > 94.2 µM (inactive); in the assay with HCC 2998 it was 40.7 µM (inactive); with CAKI-1 it was 49 µM (inactive); with SR, 34 µM (inactive); in the assay with COLO 205, 55 µM (inactive); with UACC-62, 17.6 µM (inactive). Also, the GI50 in the assay on T47D is 30.8 µM (inactive); in the assay with IGROV-1 it was > 49.9 µM (inactive); in the assay with HOP-62 it was > 52.4 µM (inactive); in the assay with MDA-MB-231 it was 29.2 µM (inactive); in the assay with ACHN it was 36.6 µM (inactive); with OVCAR-3 it was 20.7 µM (inactive).
Consider `N#C/C(=C\c1ccc(F)cc1)c1nc2ccccc2c(=O)[nH]1`, for which the GI50 in the assay on RPMI-8226, in the assay with HT-29, with SW-620, in the assay on Malme-3M, in the assay on SN12C and in the assay on CCRF-CEM was > 100 µM (inactive) each time. The GI50 in the assay with NCI-H522, in the assay with HCC 2998, in the assay with CAKI-1, in the assay with SR, in the assay on COLO 205 and in the assay with UACC-62 was > 100 µM (inactive) in each case. In addition, the GI50 in the assay with T47D was > 100 µM (inactive); in the assay with IGROV-1, > 100 µM (inactive); in the assay on HOP-62 it was 47 µM (inactive); in the assay on MDA-MB-231, 48.3 µM (inactive); in the assay with ACHN, > 100 µM (inactive).
Regarding `OC(c1ccccc1)(c1ccccc1)c1nccc2ccccc12`, the GI50 with RPMI-8226 was 38.3 µM (inactive); in the assay on HT-29, 26.8 µM (inactive); with Malme-3M, 30 µM (inactive); in the assay on SN12C, 44.5 µM (inactive); in the assay with CCRF-CEM, 23.6 µM (inactive); in the assay with NCI-H522 it was 16.7 µM (inactive). Further, the GI50 was 20.1 µM (inactive) in the assay on CAKI-1; 37.8 µM (inactive) with SR; 28.1 µM (inactive) with COLO 205; 21.5 µM (inactive) in the assay with UACC-62; 27.3 µM (inactive) in the assay with T47D; 40 µM (inactive) in the assay with IGROV-1. Further, the GI50 was 18.9 µM (inactive) in the assay on HOP-62, 37.7 µM (inactive) with MDA-MB-231, 37.6 µM (inactive) in the assay on ACHN and 17.2 µM (inactive) with OVCAR-3.
`Oc1ccc2c3c1OC1c4[nH]ncc4C[C@H]4[C@@H](C2)N(CC2CC2)CC[C@]314` (stereo not given in full): the GI50 in the assay on RPMI-8226, in the assay on HT-29, with Malme-3M, in the assay on SN12C, in the assay on CCRF-CEM and with NCI-H522 was > 100 µM (inactive) throughout. For the same compound, the GI50 in the assay with HCC 2998, in the assay with CAKI-1, in the assay on SR, in the assay with COLO 205, in the assay on UACC-62 and in the assay on T47D was > 100 µM (inactive) throughout. Further, the GI50 in the assay with IGROV-1, with HOP-62, with MDA-MB-231, with ACHN and in the assay with OVCAR-3 was > 100 µM (inactive) throughout.
With `Clc1ccc(-c2nc3cc(Cl)ccc3[nH]2)cc1`, the GI50 was 26.8 µM (inactive) in the assay on RPMI-8226; 33.6 µM (inactive) in the assay with HT-29; 42.6 µM (inactive) in the assay with SW-620; 48.2 µM (inactive) in the assay on Malme-3M; 26.2 µM (inactive) in the assay with SN12C; 54 µM (inactive) with CCRF-CEM. Moreover, the GI50 in the assay on NCI-H522 is 19.6 µM (inactive); with HCC 2998, 29.8 µM (inactive); in the assay on CAKI-1 it was > 100 µM (inactive); in the assay with SR, 32.7 µM (inactive); in the assay with COLO 205, 19.6 µM (inactive); with UACC-62, 32.7 µM (inactive). The GI50 in the assay on T47D is 26.5 µM (inactive); in the assay on IGROV-1 it was 43.4 µM (inactive); in the assay on HOP-62, 34.4 µM (inactive); in the assay on MDA-MB-231, > 100 µM (inactive); with ACHN, 39.8 µM (inactive); in the assay with OVCAR-3, 28.9 µM (inactive).
As for `COc1ccc(Nc2ccc3ccccc3c2-c2c(O)ccc3ccccc23)cc1`, the GI50 is 9.68 µM (inactive) with RPMI-8226; 16.1 µM (inactive) in the assay with HT-29; 13.9 µM (inactive) with SW-620; 15.5 µM (inactive) with SN12C; 18.3 µM (inactive) with CCRF-CEM; 18.2 µM (inactive) in the assay on NCI-H522. For the same compound, the GI50 in the assay with HCC 2998 was 15.7 µM (inactive); in the assay with CAKI-1 it was 16.1 µM (inactive); with SR, 4.93 µM (inactive); in the assay with COLO 205, 24 µM (inactive); with UACC-62 it was 29.9 µM (inactive); in the assay with T47D, 15.6 µM (inactive). Besides, the GI50 in the assay with IGROV-1 is 11 µM (inactive); in the assay on HOP-62 it was 12.6 µM (inactive); with MDA-MB-231, 24.7 µM (inactive); in the assay with ACHN it was 16.2 µM (inactive); with OVCAR-3, 14.6 µM (inactive).
With `O=C(CCCN1CCC2(CC1)CC(=O)N(N1CCOCC1)C2=O)c1ccccc1`, the GI50 in the assay on RPMI-8226, in the assay with HT-29, in the assay with SW-620, with Malme-3M, in the assay on SN12C and with CCRF-CEM was > 100 µM (inactive) throughout. Also, the GI50 in the assay with NCI-H522, in the assay on HCC 2998, in the assay on CAKI-1, in the assay with SR, with COLO 205 and with UACC-62 was > 100 µM (inactive) in each case. The GI50 in the assay on T47D, in the assay with IGROV-1, in the assay on HOP-62, with MDA-MB-231, in the assay on ACHN and in the assay with OVCAR-3 was > 100 µM (inactive) in each case.
For the compound `COc1ccc(C[C@H]2C(=O)O[C@H](C)[C@H](NC(=O)[C@@H](CC(C)C)C(C)C(=O)C3CCCN3C(=O)[C@H](C)O)C(=O)Nc3cccc(c3OC)C(=O)O[C@@H](C(C)C)C(=O)[C@H](C)C(=O)N[C@@H](CC(C)C)C(=O)N3CCC[C@H]3C(=O)N2C)cc1` (stereo not given in full) (H-[Lac][X57]T[X58]LP[NMeY](Me); ester 3-C), the GI50 with RPMI-8226 was 6.53 µM (inactive); with HT-29, 2.79 µM (inactive); with SW-620, 9.29 µM (inactive); in the assay on Malme-3M it was > 12.5 µM (inactive); in the assay with SN12C, > 12.5 µM (inactive); with NCI-H522, 9.82 µM (inactive). Further, the GI50 in the assay with HCC 2998 is 3.82 µM (inactive); with CAKI-1, > 12.5 µM (inactive); in the assay on SR, 5.09 µM (inactive); in the assay with COLO 205 it was 9.29 µM (inactive); with UACC-62 it was > 12.5 µM (inactive); with T47D it was > 12.5 µM (inactive). Further, the GI50 with IGROV-1 was > 12.5 µM (inactive); in the assay on HOP-62, > 12.5 µM (inactive); with MDA-MB-231, > 12.5 µM (inactive); in the assay with ACHN it was 12.2 µM (inactive); in the assay with OVCAR-3, 7.38 µM (inactive).
With `COc1cc([C@H]2CC(=O)C[C@H](c3cc(OC)c(OC)c(OC)c3)C23C(=O)c2ccccc2C3=O)cc(OC)c1OC`, the GI50 with RPMI-8226 was > 100 µM (inactive); in the assay on HT-29 it was > 100 µM (inactive); with SW-620, > 100 µM (inactive); with Malme-3M, > 100 µM (inactive); in the assay with SN12C, > 100 µM (inactive); with NCI-H522, 25 µM (inactive). The GI50 with HCC 2998 was > 100 µM (inactive); in the assay on CAKI-1, > 100 µM (inactive); with SR, > 100 µM (inactive); with COLO 205, > 100 µM (inactive); in the assay on UACC-62, 43.1 µM (inactive); with T47D, > 100 µM (inactive). Besides, the GI50 in the assay with IGROV-1 is > 100 µM (inactive); in the assay on HOP-62 it was 51.5 µM (inactive); in the assay on MDA-MB-231 it was 56.9 µM (inactive); with ACHN, 59.4 µM (inactive); in the assay on OVCAR-3, 57 µM (inactive).
